{"source": "ChEMBL document CHEMBL3872207", "about": "“Aromatic heterocyclic esters of podophyllotoxin exert anti-MDR activity in human leukemia K562/ADR cells via ROS/MAPK signaling pathways” (Eur J Med Chem, 2016)", "key": {"K562/Adr [1]": {"system": "K562/Adr", "test": "Induction of apoptosis in human K562/ADR cells assessed as viable cells at 0.1 uM pretreated with MAPK inhibitor U0126 for 1 hr followed by compound addition after 48 hrs by Annexin V-APC/7-AAD staining based flow cytometry (reference value: 95.31%)", "format": "functional", "conditions": "read-out: Activity"}, "[2]": {"biological_target": "c-Jun N-terminal kinase, JNK (Homo sapiens) (UniProt P45983+P53779+P45984)", "test": "Induction of JNK phosphorylation in human K562/ADR cells assessed as ratio of phosphorylated JNK to beta-actin level at 0.1 uM pretreated with ROS scavenger NAC for 2 hrs followed by compound addition after 48 hrs by Western blotting method (reference value: 0.46)", "format": "cell-based"}, "K562/Adr [3]": {"system": "K562/Adr", "test": "Induction of ERK1/2 phosphorylation in human K562/ADR cells assessed as ratio of phosphorylated ERK1/2 to beta-actin level at 0.1 uM pretreated with MAPK inhibitor SP600125 for 1 hr followed by compound addition after 48 hrs by Western blotting method (reference value: 0.22)", "format": "cell-based"}, "K562/Adr [4]": {"system": "K562/Adr", "test": "Induction of apoptosis in human K562/ADR cells assessed as late apoptotic cells at 0.1 uM pretreated with MAPK inhibitor SP600125 for 1 hr followed by compound addition after 48 hrs by Annexin V-APC/7-AAD staining based flow cytometry (reference value: 1.69%)", "format": "functional", "parameters": "scale not given: the % may be the effect or the level left"}, "[5]": {"test": "Downregulation of CyclinB1 expression in human K562/ADR cells assessed as ratio of CyclinB1 to beta-actin level at 0.1 uM pretreated with MAPK inhibitor U0126 for 1 hr followed by compound addition measured after 48 hrs by Western blot analysis (reference value: 0.77)", "format": "functional, cell-based"}, "[6]": {"biological_target": "T1, MAP kinase p38 (Homo sapiens) (UniProt O15264+Q15759+Q16539+P53778)", "test": "Induction of P38 phosphorylation in human K562/ADR cells assessed as ratio of phosphorylated p38 to beta-actin level at 0.1 uM pretreated with ROS scavenger NAC for 2 hrs followed by compound addition after 48 hrs by Western blotting method (reference value: 0.25)", "format": "cell-based"}, "K562/Adr [7]": {"system": "K562/Adr", "test": "Induction of apoptosis in human K562/ADR cells assessed as necrotic cells at 0.1 uM pretreated with MAPK inhibitor SB203580 for 1 hr followed by compound addition after 48 hrs by Annexin V-APC/7-AAD staining based flow cytometry (reference value: 0.26%)", "format": "functional", "parameters": "scale not given: the % may be the effect or the level left"}, "[8]": {"test": "Cell cycle arrest in human K562/ADR cells assessed as accumulation at S-phase at 0.1 uM measured after 48 hrs by propidium iodide staining-based flow cytometry (reference value: 47.29 +/- 2.22%)", "format": "functional"}, "K562/Adr [9]": {"system": "K562/Adr", "test": "Induction of apoptosis in human K562/ADR cells assessed as early apoptotic cells at 0.1 uM pretreated with MAPK inhibitor U0126 for 1 hr followed by compound addition after 48 hrs by Annexin V-APC/7-AAD staining based flow cytometry (reference value: 2.74%)", "format": "functional", "parameters": "scale not given: the % may be the effect or the level left"}, "[10]": {"test": "Downregulation of CDK2 expression in human K562/ADR cells assessed as ratio of CDK2 to beta-actin level at 0.1 uM pretreated with MAPK inhibitor U0126 for 1 hr followed by compound addition measured after 48 hrs by Western blot analysis (reference value: 0.65)", "format": "functional, cell-based"}, "[11]": {"biological_target": "T1, MAP kinase p38 (Homo sapiens)", "test": "Induction of P38 phosphorylation in human K562/ADR cells assessed as ratio of phosphorylated p38 to beta-actin level at 0.1 uM pretreated with MAPK inhibitor SP600125 for 1 hr followed by compound addition after 48 hrs by Western blotting method (reference value: 0.25)", "format": "cell-based"}, "[12]": {"test": "Downregulation of CyclinA expression in human K562/ADR cells assessed as ratio of CyclinA to beta-actin level at 0.1 uM pretreated with MAPK inhibitor U0126 for 1 hr followed by compound addition measured after 48 hrs by Western blot analysis (reference value: 0.64)", "format": "functional, cell-based"}, "K562/Adr [13]": {"system": "K562/Adr", "test": "Induction of apoptosis in human K562/ADR cells assessed as ratio of cleaved caspase-3 to beta-actin level at 0.1 uM measured after 48 hrs by Western blot analysis (reference value: 0.06)", "format": "functional"}, "K562/Adr [14]": {"system": "K562/Adr", "test": "Induction of apoptosis in human K562/ADR cells assessed as necrotic cells at 0.1 uM pretreated with ROS scavenger NAC for 2 hrs followed by compound addition after 48 hrs by Annexin V-APC/7-AAD staining based flow cytometry (reference value: 0.26%)", "format": "functional"}}}
{"smiles": "COc1cc([C@@H]2c3cc4c(cc3[C@H](OC(=O)c3ccco3)[C@H]3COC(=O)[C@H]23)OCO4)cc(OC)c1OC", "values": [{"measurement": "viability at 0.1 µM", "setting": "K562/Adr [1]", "result": 56.5, "unit": "%"}, {"measurement": "Ratio", "setting": "[2]", "result": 0.51}, {"measurement": "Ratio", "setting": "K562/Adr [3]", "result": 0.06}, {"measurement": "Activity", "setting": "K562/Adr [4]", "result": 30.33, "unit": "%"}, {"measurement": "Ratio", "setting": "[5]", "result": 0.51}, {"measurement": "Ratio", "setting": "[6]", "result": 0.29}, {"measurement": "Activity", "setting": "K562/Adr [7]", "result": 2.86, "unit": "%"}, {"measurement": "Activity", "setting": "[8]", "result": 60.8, "unit": "%"}, {"measurement": "Activity", "setting": "K562/Adr [9]", "result": 8.73, "unit": "%"}, {"measurement": "Ratio", "setting": "[10]", "result": 0.26}, {"measurement": "Ratio", "setting": "[11]", "result": 0.19}, {"measurement": "Ratio", "setting": "[12]", "result": 0.41}, {"measurement": "Ratio", "setting": "K562/Adr [13]", "result": 0.68}, {"measurement": "Activity", "setting": "K562/Adr [14]", "result": 2.14, "unit": "%"}]}
